Assay [1] relates to patient treated with the membrane lung NovaLung iLA. Nature of the assay: application of the membrane lung NovaLung iLA on a patient receiving ASA; scanning electron microscope image of the gas exchange membrane. Type of assay: in vivo, human.
Experimental: A patient who required treatment with the NovaLung iLA was administered 50 mg of ASA daily for 1 week before application of the membrane lung. This administration of 50 mg of ASA daily was initially maintained during application of the membrane lung, but the medicament was discontinued one week before removal of the membrane lung. […] FIG. 1 is a scanning electron microscope image of the gas exchange membrane from the membrane lung which was removed and dismantled after a period of use of 14 days on the patient thus treated and medicated.
For another assay, the system named is platelet aggregation. Nature of the assay: platelet aggregation in the patient receiving ASA with NovaLung iLA treatment, standard clinical methods. Type of assay: in vivo, human.

Experimental for platelet aggregation: The membrane lung NovaLung iLA itself was used in the manner described by Fischer el al., loc cit. The platelet aggregation was determined using standard clinical methods.

In the case of `CC(=O)Oc1ccccc1C(=O)O` [ASA, acetylsalicylic acid], the “deposition of blood constituents on the gas exchange membrane (scanning electron microscope image, FIG. 1)” value in assay [1] (50 mg ASA daily oral, membrane lung removed after period of use of 14 days on the patient) was “no deposition of blood constituents”. Moreover, in assay [1] (50 mg ASA daily, membrane lung left on the patient for 2 weeks), the “gas exchange performance and flow resistance of the membrane lung to the blood stream” value is recorded as “without an appreciable reduction in gas exchange performance or an appreciable increase in the flow resistance”. Also, the “platelet aggregation (FIG. 3)” value with platelet aggregation (50 mg ASA daily, during the second week of ASA administration) is given as “remained at its reduced value”; with platelet aggregation (50 mg ASA daily, within the first week of ASA administration, when the membrane lung was connected), “below 20%”; with platelet aggregation (two weeks after start of treatment with the membrane lung, 1 week after discontinuation of ASA), “below 30%”.

(Values after US20070254856A1, “Use of acetylsalicylic acid (ASA) in the application of a membrane lung” (priority 2006, published 2007).)
